Legend:
P2Y purinoceptor 6 = P2Y purinoceptor 6 (Homo sapiens, UniProt Q15077); assay: Antagonist activity at human P2Y6R stably expressed in HEK293 cells assessed as inhibition of UDP-induced IP3 accumulation preincubated with compound for 30 mins followed by UDP addition by ELISA; type: functional, cell-based
[1] = Half life in male Sprague-Dawley rat at 20 mg/kg, po measured upto 24 hrs; type: ADME, organism-based; settings: in vivo
Cytochrome P450 2C9 = Cytochrome P450 2C9 (Homo sapiens, UniProt P11712); assay: Inhibition of CYP2C9 in human liver microsomes using diclofenac as substrate measured after 30 mins by LC/MS analysis; type: ADME, Microsome
[2] = Cmax in male Sprague-Dawley rat at 20 mg/kg, po measured upto 24 hrs; type: ADME, organism-based; settings: in vivo
[3] = AUC (0 to 24 hrs) in male Sprague-Dawley rat at 10 mg/kg, iv measured upto 24 hrs; type: ADME, organism-based; settings: in vivo
Cytochrome P450 1A2 = biological target: T1, Cytochrome P450 1A2 (Homo sapiens, UniProt P05177); assay: Inhibition of CYP1A2 in human liver microsomes using phenacetin as substrate measured after 30 mins by LC/MS analysis; type: ADME, Microsome
T1 sequence (P05177 whole entry): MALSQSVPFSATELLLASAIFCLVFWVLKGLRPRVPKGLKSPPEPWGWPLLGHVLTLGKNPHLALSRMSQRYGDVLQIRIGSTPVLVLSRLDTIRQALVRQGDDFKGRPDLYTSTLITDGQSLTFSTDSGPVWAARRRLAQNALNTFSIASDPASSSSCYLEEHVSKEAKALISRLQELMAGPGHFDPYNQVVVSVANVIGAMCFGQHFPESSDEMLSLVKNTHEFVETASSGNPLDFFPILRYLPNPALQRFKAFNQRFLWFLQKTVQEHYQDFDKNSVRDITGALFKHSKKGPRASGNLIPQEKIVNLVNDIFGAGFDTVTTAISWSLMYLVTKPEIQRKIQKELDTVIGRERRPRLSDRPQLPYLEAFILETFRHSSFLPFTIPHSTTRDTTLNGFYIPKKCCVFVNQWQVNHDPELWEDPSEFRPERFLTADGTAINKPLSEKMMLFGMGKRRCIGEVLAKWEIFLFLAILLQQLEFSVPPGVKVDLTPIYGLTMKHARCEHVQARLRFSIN

Cytochrome P450 2C19 = Cytochrome P450 2C19 (Homo sapiens, UniProt P33261); assay: Inhibition of CYP2C19 in human liver microsomes using mephenytoin as substrate measured after 30 mins by LC/MS analysis; type: ADME, Microsome
[4] = AUC (0 to 24 hrs) in male Sprague-Dawley rat at 20 mg/kg, po measured upto 24 hrs; type: ADME, organism-based; settings: in vivo
[5] = Tmax in male Sprague-Dawley rat at 10 mg/kg, iv measured upto 24 hrs; type: ADME, organism-based; settings: in vivo
[6] = Clearance in male Sprague-Dawley rat at 20 mg/kg, po measured upto 24 hrs; type: ADME, organism-based; settings: in vivo
RAW264.7 [7] = assay: Cytotoxicity in mouse Raw264.7 cells at <80 uM incubated for 24 hrs by SRB method; type: toxicity, cell-based; settings: raw264.7, 24 h
[8] = Stability of the compound in stimulated intestinal fluid assessed as half life; type: physicochemical; settings: simulated intestinal fluid
[9] = Cmax in male Sprague-Dawley rat at 10 mg/kg, iv measured upto 24 hrs; type: ADME, organism-based; settings: in vivo
P2Y purinoceptor 1 = P2Y purinoceptor 1 (Homo sapiens, UniProt P47900); assay: Antagonist activity at human P2Y1R stably expressed in HEK293 cells assessed as inhibition of ADP-induced IP3 accumulation preincubated with compound for 30 mins followed by ADP addition by ELISA method; type: functional, cell-based
Cytochrome P450 3A4 = Cytochrome P450 3A4 (Homo sapiens, UniProt P08684); assay: Inhibition of CYP3A4 in human liver microsomes using midazolam as substrate measured after 30 mins by LC/MS analysis; type: ADME, Microsome
[10] = Metabolic stability in human liver microsomes assessed as half life at […] measured upto 45 mins in presence of NADPH by LC-MS analysis; type: ADME, Microsome
[11] = Oral bioavailability in male Sprague-Dawley rat at 20 mg/kg measured upto 24 hrs; type: ADME, organism-based; settings: in vivo
[12] = Tmax in male Sprague-Dawley rat at 20 mg/kg, po measured upto 24 hrs; type: ADME, organism-based; settings: in vivo
[13] = Half life in male Sprague-Dawley rat at 10 mg/kg, iv measured upto 24 hrs; type: ADME, organism-based; settings: in vivo
[14] = Stability of the compound in stimulated gastric fluid assessed as half life; type: physicochemical; settings: simulated gastric fluid
[15] = Metabolic stability in human liver microsomes assessed as intrinsic clearance at […] measured upto 45 mins in presence of NADPH by LC-MS analysis; type: ADME, Microsome; settings: read-out: CLH
P2Y purinoceptor 2 = P2Y purinoceptor 2 (Homo sapiens, UniProt P41231); assay: Antagonist activity at human P2Y2R stably expressed in HEK293 cells assessed as inhibition of UTP-induced IP3 accumulation preincubated with compound for 30 mins followed by UTP addition by ELISA method; type: functional, cell-based
P2Y purinoceptor 4 = P2Y purinoceptor 4 (Homo sapiens, UniProt P51582); assay: Antagonist activity at human P2Y4R stably expressed in HEK293 cells assessed as inhibition of UTP-induced IP3 accumulation preincubated with compound for 30 mins followed by UTP addition by ELISA; type: functional, cell-based
Cytochrome P450 2D6 = Cytochrome P450 2D6 (Homo sapiens, UniProt P10635); assay: Inhibition of CYP2D6 in human liver microsomes using dextromethorphan as substrate measured after 30 mins by LC/MS analysis; type: ADME, Microsome
P2Y purinoceptor 12 = P2Y purinoceptor 12 (Homo sapiens, UniProt Q9H244); assay: Antagonist activity at human P2Y12R stably expressed in HEK293 cells assessed as inhibition of 2-MeSADP-induced IP3 accumulation preincubated with compound for 30 mins followed by 2-MeSADP addition by ELISA; type: functional, cell-based
[16] = Clearance in male Sprague-Dawley rat at 10 mg/kg, iv measured upto 24 hrs; type: ADME, organism-based; settings: in vivo
RAW264.7 [17] = assay: Anti-inflammatory activity in LPS-induced ALI in mouse RAW264.7 cells assessed as decrease in intracellular ROS level by DCFH-DA staining based flow cytometry analysis (reference value: 91.2%); type: functional; design: scale not given: the % may be the effect or the level left
RAW264.7 [18] = assay: Induction of pyroptosis in LPS induced mouse RAW264.7 cells by caspase-1/PI staining based flow cytometry (reference value: 49.6 %); type: functional

Sequence of Cytochrome P450 2C19 (P33261 whole entry): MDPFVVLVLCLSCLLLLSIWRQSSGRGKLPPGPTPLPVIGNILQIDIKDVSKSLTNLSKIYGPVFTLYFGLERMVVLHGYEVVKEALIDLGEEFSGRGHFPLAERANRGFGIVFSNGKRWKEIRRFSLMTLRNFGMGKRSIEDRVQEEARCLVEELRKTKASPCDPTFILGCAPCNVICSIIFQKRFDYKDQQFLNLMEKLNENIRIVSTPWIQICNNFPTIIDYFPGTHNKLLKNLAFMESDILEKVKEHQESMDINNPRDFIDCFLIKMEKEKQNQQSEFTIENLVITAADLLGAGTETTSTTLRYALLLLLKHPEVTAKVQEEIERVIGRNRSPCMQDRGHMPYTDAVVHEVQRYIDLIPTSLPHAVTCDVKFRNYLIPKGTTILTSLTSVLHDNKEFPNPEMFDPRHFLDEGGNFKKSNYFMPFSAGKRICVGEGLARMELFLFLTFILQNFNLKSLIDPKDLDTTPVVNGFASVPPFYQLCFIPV
Sequence of P2Y purinoceptor 2 (P41231 whole entry): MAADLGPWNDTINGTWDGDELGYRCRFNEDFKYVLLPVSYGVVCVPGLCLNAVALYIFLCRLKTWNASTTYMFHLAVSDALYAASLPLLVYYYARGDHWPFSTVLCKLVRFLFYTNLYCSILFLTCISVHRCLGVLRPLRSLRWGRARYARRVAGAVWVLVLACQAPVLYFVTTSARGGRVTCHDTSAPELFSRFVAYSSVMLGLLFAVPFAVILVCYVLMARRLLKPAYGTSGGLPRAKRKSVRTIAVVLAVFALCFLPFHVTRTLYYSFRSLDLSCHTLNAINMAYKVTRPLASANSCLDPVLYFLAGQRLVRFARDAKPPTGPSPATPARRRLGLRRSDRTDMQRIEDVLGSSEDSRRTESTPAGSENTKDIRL
Sequence of P2Y purinoceptor 6 (Q15077 whole entry): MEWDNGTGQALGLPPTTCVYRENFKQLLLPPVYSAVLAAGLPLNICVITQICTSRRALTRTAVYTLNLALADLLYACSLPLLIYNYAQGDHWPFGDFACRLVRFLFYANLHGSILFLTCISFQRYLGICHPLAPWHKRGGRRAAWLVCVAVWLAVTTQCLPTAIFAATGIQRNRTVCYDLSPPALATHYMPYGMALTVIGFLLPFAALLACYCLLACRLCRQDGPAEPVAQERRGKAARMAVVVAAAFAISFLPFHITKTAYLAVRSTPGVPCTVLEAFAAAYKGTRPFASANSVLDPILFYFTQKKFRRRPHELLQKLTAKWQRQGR
Sequence of P2Y purinoceptor 1 (P47900 whole entry): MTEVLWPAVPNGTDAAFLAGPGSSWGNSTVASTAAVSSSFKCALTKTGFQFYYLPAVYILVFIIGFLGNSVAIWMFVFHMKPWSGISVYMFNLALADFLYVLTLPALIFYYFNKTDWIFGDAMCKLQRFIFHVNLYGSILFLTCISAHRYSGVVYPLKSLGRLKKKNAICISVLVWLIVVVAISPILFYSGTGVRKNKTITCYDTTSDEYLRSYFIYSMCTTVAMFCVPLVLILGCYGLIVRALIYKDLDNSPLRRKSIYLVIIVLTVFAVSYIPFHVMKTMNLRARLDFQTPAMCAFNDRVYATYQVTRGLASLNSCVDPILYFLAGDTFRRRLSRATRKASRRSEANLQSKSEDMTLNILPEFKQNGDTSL
Sequence of P2Y purinoceptor 4 (P51582 whole entry): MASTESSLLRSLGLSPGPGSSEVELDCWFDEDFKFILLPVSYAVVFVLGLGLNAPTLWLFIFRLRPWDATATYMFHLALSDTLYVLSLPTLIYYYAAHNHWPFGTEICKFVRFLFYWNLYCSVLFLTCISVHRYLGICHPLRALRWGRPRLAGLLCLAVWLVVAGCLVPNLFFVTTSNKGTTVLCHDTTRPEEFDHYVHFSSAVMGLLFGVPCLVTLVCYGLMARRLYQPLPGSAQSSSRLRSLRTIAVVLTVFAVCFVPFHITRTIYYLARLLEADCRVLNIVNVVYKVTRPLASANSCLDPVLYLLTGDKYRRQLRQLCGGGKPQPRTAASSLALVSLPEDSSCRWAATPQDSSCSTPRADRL
Sequence of Cytochrome P450 3A4 (P08684 whole entry): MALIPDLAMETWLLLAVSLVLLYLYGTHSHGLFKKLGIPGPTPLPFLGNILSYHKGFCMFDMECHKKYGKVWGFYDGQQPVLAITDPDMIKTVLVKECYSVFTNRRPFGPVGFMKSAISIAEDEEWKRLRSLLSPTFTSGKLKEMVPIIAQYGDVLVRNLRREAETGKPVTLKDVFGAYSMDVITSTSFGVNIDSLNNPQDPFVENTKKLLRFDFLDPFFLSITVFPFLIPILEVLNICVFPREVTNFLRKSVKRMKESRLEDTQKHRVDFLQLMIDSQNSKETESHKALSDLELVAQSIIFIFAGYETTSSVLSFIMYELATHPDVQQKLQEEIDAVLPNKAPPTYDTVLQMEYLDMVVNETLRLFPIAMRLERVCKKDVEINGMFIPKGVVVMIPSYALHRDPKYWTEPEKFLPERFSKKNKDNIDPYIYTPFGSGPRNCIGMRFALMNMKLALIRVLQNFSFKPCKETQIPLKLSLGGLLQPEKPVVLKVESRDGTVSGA
Sequence of Cytochrome P450 2C9 (P11712 whole entry): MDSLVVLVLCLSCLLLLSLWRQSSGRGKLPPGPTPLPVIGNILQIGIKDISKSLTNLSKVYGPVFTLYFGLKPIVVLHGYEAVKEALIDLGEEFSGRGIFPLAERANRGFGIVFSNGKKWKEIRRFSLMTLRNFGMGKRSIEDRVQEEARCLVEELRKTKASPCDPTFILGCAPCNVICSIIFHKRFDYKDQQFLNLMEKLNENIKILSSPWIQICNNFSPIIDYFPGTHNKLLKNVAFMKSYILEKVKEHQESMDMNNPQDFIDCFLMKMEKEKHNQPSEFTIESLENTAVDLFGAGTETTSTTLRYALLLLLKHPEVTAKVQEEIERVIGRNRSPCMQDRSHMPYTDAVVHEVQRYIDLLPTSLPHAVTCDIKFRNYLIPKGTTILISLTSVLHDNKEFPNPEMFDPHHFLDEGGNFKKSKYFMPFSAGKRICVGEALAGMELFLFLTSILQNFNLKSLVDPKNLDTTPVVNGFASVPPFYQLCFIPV
Sequence of P2Y purinoceptor 12 (Q9H244 whole entry): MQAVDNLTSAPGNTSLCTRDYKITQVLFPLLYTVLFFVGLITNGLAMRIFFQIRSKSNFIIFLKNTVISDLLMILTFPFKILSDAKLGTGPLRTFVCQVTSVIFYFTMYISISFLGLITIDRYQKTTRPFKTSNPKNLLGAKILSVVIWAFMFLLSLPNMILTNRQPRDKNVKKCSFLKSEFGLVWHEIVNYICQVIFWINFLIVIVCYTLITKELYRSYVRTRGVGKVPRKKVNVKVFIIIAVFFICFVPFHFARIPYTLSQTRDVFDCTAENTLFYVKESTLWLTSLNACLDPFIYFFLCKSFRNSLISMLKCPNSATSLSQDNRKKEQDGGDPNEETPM
Sequence of Cytochrome P450 2D6 (P10635 whole entry): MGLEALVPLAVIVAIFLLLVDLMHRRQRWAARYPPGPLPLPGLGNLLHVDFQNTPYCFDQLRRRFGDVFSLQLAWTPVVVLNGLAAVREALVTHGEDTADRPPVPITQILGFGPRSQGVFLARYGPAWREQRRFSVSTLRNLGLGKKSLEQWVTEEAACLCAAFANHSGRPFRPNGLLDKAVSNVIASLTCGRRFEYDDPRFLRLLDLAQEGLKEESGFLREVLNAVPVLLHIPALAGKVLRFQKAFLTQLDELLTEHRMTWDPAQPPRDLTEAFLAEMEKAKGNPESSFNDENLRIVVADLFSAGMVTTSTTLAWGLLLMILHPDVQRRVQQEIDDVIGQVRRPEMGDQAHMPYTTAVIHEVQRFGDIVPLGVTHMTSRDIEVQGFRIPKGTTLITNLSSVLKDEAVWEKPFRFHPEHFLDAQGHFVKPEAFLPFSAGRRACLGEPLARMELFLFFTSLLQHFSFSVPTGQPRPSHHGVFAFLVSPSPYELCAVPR

Work on `COC(=O)c1cc(NC(=O)Cc2ccc(C)cc2)cc(-c2nc3ccccc3[nH]2)c1` yielded an IC50 (P2Y purinoceptor 6) of 47.6 µM, a half-life [1] of 96 min and an IC50 (Cytochrome P450 2C9) greater than 30 µM. It also gave a Cmax [2] of 1940 ng/mL, an AUC(0-t) at 24 h ([3]; male, Sprague-Dawley) of 895 ng·h/mL and an IC50 (Cytochrome P450 1A2) greater than 30 µM. For the same compound, the IC50 (Cytochrome P450 2C19) was greater than 30 µM, the AUC(0-t) at 24 h ([4]; male, Sprague-Dawley) was 1120 ng·h/mL and the Tmax ([5]; male, Sprague-Dawley, read-out: Tmax (converted)) was 19 min. For the same compound, the CL/F [6] was 46.5 mL/min/kg, the Activity (RAW264.7 [7]) was “Non-toxic” and the half-life [8] was greater than 300 min. It also gave a Cmax ([9]; male, Sprague-Dawley, read-out: Cmax) of 964 ng/mL, an IC50 (P2Y purinoceptor 1) greater than 100 µM and an IC50 (Cytochrome P450 3A4) greater than 30 µM. For the same compound, the half-life [10] was 354 min, the bioavailability ([11]; male, Sprague-Dawley) was 38% and the Tmax [12] was 26 min. It also gave a half-life ([13]; male, Sprague-Dawley) of 48 min, a half-life [14] greater than 50 h and a microsomal CLint [15] of 25.6 µL/min/mg. For the same compound, the IC50 (P2Y purinoceptor 2) was greater than 100 µM, the IC50 (P2Y purinoceptor 4) was greater than 100 µM and the IC50 (Cytochrome P450 2D6) was greater than 30 µM. The IC50 (P2Y purinoceptor 12) was greater than 100 µM and the clearance [16] was 26.1 mL/min/kg.

Work on `O=C(O)c1cc(-c2ccc(C3CCNCC3)cc2)c2ccc(-c3ccc(C(F)(F)F)cc3)cc2c1` [PPTN] yielded a half-life [1] of 24 min, an Activity (RAW264.7 [17]) of 58.7% and a Cmax [2] of 1540 ng/mL. It also gave an AUC ([3]; iv, 10 mg/kg, 24 h) of 2411 ng·h/mL, an AUC ([4]; po, 20 mg/kg, 24 h) of 3001 ng·h/mL and a Tmax ([5]; iv, 10 mg/kg, 24 h) of 8 min. For the same compound, the CL/F [6] was 22.1 mL/min/kg, the Cmax ([9]; iv, 10 mg/kg, 24 h) was 1024 ng/mL and the F ([11]; po, 20 mg/kg, 24 h) was 12%. The Tmax [12] was 17 min, the t1/2 ([13]; iv, 10 mg/kg, 24 h) was 12 min and the Activity (RAW264.7 [18]) was 8.93%. For the same compound, the clearance [16] was 11.5 mL/min/kg.
